Source: patent publication US20180116983A1, “COMPOUNDS FOR TREATING DISORDERS ASSOCIATED WITH BK CHANNEL MODULATION” (Canbex Therapeutics Limited, priority 2015, published 2018)
Each block holds one compound with its values, some of them ahead of it.

What was measured:
KNCMA1 = molecular target: T1, KNCMA1 (Sus scrofa, UniProt O18866); assay: Whole-cell current in primary pig aortic endothelial cells; type: cell-based
T1 construct: endogenous in cells; host or cells: primary pig aortic endothelial cells
T1 sequence (O18866 whole entry): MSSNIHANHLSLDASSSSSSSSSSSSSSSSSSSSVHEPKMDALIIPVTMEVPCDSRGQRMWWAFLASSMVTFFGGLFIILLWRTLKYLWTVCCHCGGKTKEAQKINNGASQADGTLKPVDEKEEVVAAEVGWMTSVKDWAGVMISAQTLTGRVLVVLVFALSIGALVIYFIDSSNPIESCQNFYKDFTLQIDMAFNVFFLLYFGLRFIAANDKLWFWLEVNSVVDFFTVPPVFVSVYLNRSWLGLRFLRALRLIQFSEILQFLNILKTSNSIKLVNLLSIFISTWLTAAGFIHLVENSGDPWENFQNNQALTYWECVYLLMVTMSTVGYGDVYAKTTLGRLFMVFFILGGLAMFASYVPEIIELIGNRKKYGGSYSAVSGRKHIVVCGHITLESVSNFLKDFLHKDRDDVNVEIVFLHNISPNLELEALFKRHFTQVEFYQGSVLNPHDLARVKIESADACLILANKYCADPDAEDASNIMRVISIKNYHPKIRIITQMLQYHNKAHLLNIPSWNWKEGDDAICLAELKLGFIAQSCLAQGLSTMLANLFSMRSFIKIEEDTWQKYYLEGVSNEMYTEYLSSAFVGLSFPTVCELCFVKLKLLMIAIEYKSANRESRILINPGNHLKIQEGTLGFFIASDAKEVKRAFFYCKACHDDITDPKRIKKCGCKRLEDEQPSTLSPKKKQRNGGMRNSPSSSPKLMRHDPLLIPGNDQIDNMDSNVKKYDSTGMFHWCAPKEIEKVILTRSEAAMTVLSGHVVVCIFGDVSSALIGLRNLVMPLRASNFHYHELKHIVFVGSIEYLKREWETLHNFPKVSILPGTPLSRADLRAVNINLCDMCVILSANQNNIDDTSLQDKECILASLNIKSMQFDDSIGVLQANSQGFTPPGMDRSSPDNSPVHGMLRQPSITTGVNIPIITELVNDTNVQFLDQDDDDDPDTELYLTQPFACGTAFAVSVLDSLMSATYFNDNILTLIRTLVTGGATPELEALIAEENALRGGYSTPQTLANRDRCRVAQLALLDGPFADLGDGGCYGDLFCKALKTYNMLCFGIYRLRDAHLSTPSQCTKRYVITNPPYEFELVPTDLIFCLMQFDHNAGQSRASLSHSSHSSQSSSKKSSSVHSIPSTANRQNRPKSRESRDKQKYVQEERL
Excerpt: Pig aortic endothelial cells only express KNCMAI and not KNCMB1-4 (Papassotiriou et al). Thus, the absence of stimulation indicates a lack of effect on KNCMA1.

BK channel [1] = molecular target: T2, BK channel (Homo sapiens, UniProt Q12791); assay: Inside-out patch clamp (single channel) on EA.hy926 cells; type: cell-based; set-up: The human umbilical vein derived endothelial cell line, EA.hy926; endogenous in cells; host or cells: EA.hy926 human endothelial cell line; conditions: human EA.hy926 cells, calcium dependent
Procedure: The human umbilical vein derived endothelial cell line, EA.hy926 (Edgell et al., Proc Natl Acad Sci USA. 1983 June; 80(12): 3734-7) at passage >45 was grown in DMEM containing 10% FCS and 1% HAT (5 mM hypoxanthine, 20 μM aminopterin, 0.8 mM thymidine) and cells were maintained in an incubator at 37° C. in 5% CO2 atmosphere. Cells were plated on either 10 mm (for patch-clamp recordings) or 30 mm glass cover slips (for Ca^2+ measurements).
Single-channel recordings were obtained from excised inside-out membrane patches in symmetrical solutions. The pipettes were filled with (in mM) 140 KCl, 10 HEPES, 1 MgCl2, 5 EGTA, 4,931 CaCl2 with pH 7.2 by adding KOH (i.e. 10 μM free Ca^2+, G. Droogmans, Leuven, Belgium; ftp://ftp.cc.kuleuven.ac.be/pub/droodmans/cabuf.zip). Cells were perfused with a standard bath solution containing (in mM) 140 NaCl, 5 KCl, 1.2 MgCl2, 10 HEPES, 10 glucose, 2.4 CaCl2. Following gigaseal formation, bath solution was switched to the following (in mM) 140 KCl, 10 HEPES, 1 MgCl2, 5 EGTA and a desired free Ca^2+ concentration which was adjusted by adding different amounts of CaCl2 calculated by the program CaBuf. pH was adjusted to 7.2 by adding KOH. Membrane currents and potential were recorded using a List EPC7 amplifier (List, Germany) and pClamp (version 8.2, Axon Instruments) software.
Target sequence in this assay (Q12791 1-1178 isoform Q12791-5): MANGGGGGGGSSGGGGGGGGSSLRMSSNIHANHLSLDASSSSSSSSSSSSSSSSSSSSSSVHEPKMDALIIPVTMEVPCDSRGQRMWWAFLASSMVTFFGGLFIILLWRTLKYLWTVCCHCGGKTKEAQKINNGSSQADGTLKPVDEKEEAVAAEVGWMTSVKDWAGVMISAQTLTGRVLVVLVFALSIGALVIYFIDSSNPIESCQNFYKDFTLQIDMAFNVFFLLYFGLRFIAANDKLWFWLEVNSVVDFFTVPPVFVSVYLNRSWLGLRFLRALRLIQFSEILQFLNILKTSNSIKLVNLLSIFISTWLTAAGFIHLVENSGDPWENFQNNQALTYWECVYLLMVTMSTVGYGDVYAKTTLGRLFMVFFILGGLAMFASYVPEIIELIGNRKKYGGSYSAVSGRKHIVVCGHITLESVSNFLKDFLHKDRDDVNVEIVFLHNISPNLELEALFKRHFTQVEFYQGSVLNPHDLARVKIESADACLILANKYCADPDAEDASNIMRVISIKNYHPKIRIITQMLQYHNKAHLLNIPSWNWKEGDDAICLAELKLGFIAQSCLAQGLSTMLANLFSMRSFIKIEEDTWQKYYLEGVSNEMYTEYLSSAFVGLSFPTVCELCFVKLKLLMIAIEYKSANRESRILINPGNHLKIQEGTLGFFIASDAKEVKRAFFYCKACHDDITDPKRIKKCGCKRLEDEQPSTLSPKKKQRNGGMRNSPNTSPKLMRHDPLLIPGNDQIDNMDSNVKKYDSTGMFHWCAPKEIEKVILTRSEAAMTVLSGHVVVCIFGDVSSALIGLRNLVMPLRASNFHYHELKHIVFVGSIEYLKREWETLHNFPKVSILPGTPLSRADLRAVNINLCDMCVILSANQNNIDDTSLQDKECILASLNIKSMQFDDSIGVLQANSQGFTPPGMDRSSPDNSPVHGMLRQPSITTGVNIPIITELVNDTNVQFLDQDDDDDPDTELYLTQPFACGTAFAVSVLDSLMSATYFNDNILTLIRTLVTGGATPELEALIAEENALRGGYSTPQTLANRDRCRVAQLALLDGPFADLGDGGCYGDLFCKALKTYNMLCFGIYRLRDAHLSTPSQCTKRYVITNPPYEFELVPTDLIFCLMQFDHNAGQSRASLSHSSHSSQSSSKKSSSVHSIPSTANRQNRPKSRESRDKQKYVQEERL
Target sequence in this assay (Q86W47 whole entry partner): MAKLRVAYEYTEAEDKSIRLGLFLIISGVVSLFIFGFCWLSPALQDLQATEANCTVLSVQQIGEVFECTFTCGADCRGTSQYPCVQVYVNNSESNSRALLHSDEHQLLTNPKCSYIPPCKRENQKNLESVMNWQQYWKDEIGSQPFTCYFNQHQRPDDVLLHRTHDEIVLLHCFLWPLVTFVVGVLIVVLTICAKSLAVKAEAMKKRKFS

mesenteric arteries = conditions: cited from earlier work
[2] = tested on: C57BL/6.Fmr1 knockout mice; assay: Contextual fear conditioning in Fmr1 knockout mice; type: in vivo, mouse; conditions: wildtype mice; 2 mg/kg
Procedure: Animals: C57BL/6.J. Fmr1-K02 mice, which have a deletion of the promoter and exonl of the Fmr1 gene (Mientjes et al., 2006) and C57BL/6J wild type (WT) were originated from the Jackson laboratory (Ann Harbor, USA). Mice were housed in groups (4-6 per cage) and all animals were provided with ad libitum food and water unless otherwise stated. Mice were maintained on a 12 h light/12 h dark cycle (lights off 19:00 to 7:00) in a temperature-controlled environment (21±1° C.). Testing was conducted in the light phase. Mice were housed in commercial cages and experiments were performed in line with the United Kingdom Animals (Scientific procedures) Act 1986. All experiments were conducted with experimentors blind to genotype and drug treatment. Each experimental group contained 10 animals.
Drug Treatment: VSN16R was dissolved in saline for injection intravenously via a tail vein using 2 mg/kg a 30 g needle in a volume of 0.1 ml. Animals were inspected for differences in coat appearance, to detect whether any piloerection was present. The eye condition (runny eyes or porphyria, ptosis), gait appearance, tremor, tail tone, reactivity to handling was assessed to detect adverse behavioural effect.
Contextual fear conditioning: Animals are trained to expect an electroshock treatment within a defined environment, such that on subsequent presentation of the environment, freezing behaviours are induced. […]

[3] = molecular target: T3, BKCa channels formed by the exon-less alpha subunit (Homo sapiens, UniProt Q12791); assay: Whole-cell BKCa current in HEK293 cells expressing the alpha subunit alone; type: cell-based; conditions: HEK293
T3 construct: expressed in transfected cells; host or cells: HEK293
T3 sequence (Q12791 1-1178 isoform Q12791-5): as the sequence (Q12791 1-1178 isoform Q12791-5) above

[4] = tested on: salicylate-induced tinnitus in rats; conditions: cited from earlier work
[5] = tested on: murine ex vivo lung slices; conditions: cited from earlier work
isolated hearts = conditions: after cold cardioplegic arrest; cited from earlier work
[6] = tested on: OVA- and HDM-sensitized mice; conditions: cited from earlier work
BK channel [7] = molecular target: T2, BK channel; set-up: host or cells: human airway smooth muscle (ASM) cells; conditions: human ASM cells; cited from earlier work
Target sequence in this assay (Q12791 whole entry): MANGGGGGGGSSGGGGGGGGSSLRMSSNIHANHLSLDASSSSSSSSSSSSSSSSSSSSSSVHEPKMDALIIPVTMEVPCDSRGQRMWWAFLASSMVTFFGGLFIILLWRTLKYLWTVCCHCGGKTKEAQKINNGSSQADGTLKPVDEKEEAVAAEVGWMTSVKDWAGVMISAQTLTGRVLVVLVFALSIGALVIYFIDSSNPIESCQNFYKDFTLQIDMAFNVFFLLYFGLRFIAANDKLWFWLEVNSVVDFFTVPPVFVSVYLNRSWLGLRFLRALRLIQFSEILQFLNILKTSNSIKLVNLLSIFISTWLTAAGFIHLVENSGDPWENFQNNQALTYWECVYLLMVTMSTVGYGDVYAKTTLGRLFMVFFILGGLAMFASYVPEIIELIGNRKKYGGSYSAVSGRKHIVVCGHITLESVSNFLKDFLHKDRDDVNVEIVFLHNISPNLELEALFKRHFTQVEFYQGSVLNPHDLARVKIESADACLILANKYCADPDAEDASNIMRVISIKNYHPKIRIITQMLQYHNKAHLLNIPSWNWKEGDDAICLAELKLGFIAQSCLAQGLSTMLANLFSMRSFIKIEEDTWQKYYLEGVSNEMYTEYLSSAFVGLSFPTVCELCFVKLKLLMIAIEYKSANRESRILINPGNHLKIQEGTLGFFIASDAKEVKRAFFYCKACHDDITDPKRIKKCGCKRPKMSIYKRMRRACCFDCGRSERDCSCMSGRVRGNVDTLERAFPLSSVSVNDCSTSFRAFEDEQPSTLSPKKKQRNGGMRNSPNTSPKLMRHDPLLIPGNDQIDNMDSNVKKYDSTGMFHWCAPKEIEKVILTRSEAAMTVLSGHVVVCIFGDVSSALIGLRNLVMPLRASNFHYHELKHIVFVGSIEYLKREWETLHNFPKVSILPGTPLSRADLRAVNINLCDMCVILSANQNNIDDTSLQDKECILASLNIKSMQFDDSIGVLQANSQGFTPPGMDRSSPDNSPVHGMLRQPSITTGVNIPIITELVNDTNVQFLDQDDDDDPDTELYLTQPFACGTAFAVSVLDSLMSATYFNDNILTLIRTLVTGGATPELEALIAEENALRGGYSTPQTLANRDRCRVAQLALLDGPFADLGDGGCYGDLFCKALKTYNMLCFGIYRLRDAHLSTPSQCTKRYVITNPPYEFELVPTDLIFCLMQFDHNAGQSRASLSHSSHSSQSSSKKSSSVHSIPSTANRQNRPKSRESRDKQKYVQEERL

[8] = tested on: rat models of permanent large-vessel stroke; conditions: cited from earlier work
maxi-K channels = maxi-K channels (Homo sapiens, UniProt Q12791); conditions: cited from earlier work
maxi-K channels, sequence (Q12791 whole entry): as above

Fmr1 knockout mouse = conditions: cited from earlier work

Structure (SMILES): Clc1ccccc1C(c1ccccc1)(c1ccccc1)n1cccn1 [TRAM-34, reference compound]
effect on residual current (KNCMA1; IK channel blocker after VSN16R): a minor effect on this residual current

Structure (SMILES): CC(NC(=O)c1cccc(/C=C\CCCC(=O)N(C)C)c1)C(=O)O [VSN44R, (Z)-(3-(6-(dimethylamino)-6-oxohex-1-en-1-yl)benzoyI)-D-alanine]
activation of the response of the channel (BK channel [1]): activation of the response of the channel

Structure (SMILES): CC(CO)NC(=O)c1cccc(/C=C\CCCC(=O)N(C)C)c1 (centres unmarked) [VSN16]
effect on current (KNCMA1; no BK beta chains): does not stimulate pig aortic endothelial cells
relaxation of mesenteric arteries (mesenteric arteries): relaxed mesenteric arteries in an endothelium-dependent manner
vasorelaxation in the presence of rimonabant, AM 251 or O-1918 (mesenteric arteries; high concentrations of the antagonists): antagonized
fear conditioning and digging behaviour in wildtype mice [2]: exhibited no-inhibitory effect

Structure (SMILES): CC(C)(O)[C@H]1O[C@H]2CC[C@@]3(C)[C@@](O)(CC[C@H]4Cc5c([nH]c6ccccc56)[C@@]43C)C2=CC1=O [paxilline, (2R,4bS,6aS,12bS,12cR,14aS)-5,6,6a,7,12,12b,12c,13,14,14a-Decahydro-4b-hydroxy-2-(1-hydroxy-1-methylethyl)-12b,12c-dimethyl-2H-pyrano[2″,3″:5′,6′]benz[1′,2′:6,7]indeno[1,2-b]indol-3(4bH)-one, reference compound]
suppression of BKCa current ([3]; 10 μM): suppressed
suppression of BKCa current ([3]; 10 μM, listed as Paxilline): consistently suppressed the BKCa current

Structure (SMILES): COc1ccc(Cl)cc1[C@@]1(F)C(=O)Nc2cc(C(F)(F)F)ccc21 [R-Maxipost]
effect on tinnitus ([4]; dose not given): maintained the positive effect on tinnitus

Structure (SMILES): CC[N+](CC)(CC)CC [TEA, reference compound]
suppression of BKCa current ([3]; 5 mM): consistently suppressed the BKCa current

enhancement of BKCa current ([3]; 10 μM, steps −40 mV to +70 mV, 200 nM calcium): approximately doubled
Structure (SMILES): Nc1ncc(Cc2ccc(Br)cc2)s1 [NS19504, 5-[(4-bromophenyl)methyl]-2-thiazolannine, reference compound]

Structure (SMILES): CC(=O)c1c(O)c(C)c(O)c(Cc2c(O)c3c(c(C(=O)/C=C/c4ccccc4)c2O)OC(C)(C)C=C3)c1O [rottlerin]
frequency of acetylcholine-induced Ca2+ oscillations [5]: reduces the frequency of acetylcholine-induced Ca^2+ oscillations
cardiac contractile performance and coronary perfusion (isolated hearts): increases cardiac contractile performance and coronary perfusion
reduction in Th2 cytokines ([6]; bronchoalveolar lavage fluid): 20-35%
reduction in inflammatory cells ([6]; bronchoalveolar lavage fluid): 35-40%
reduction of AHR ([6]; intravenous, within 5 minutes, OVA-asthma mice, P<0.01): 45%
methacholine-induced airway hyperreactivity (AHR) ([6]; systemic administration): reduces methacholine-induced airway hyperreactivity
BK channel activity (BK channel [7]): increases BK channel activity

Structure (SMILES): COc1ccc(Cl)cc1[C@]1(F)C(=O)Nc2cc(C(F)(F)F)ccc21 [BMS-204352]
cortical neuroprotection ([8]; administered two hours after onset of occlusion): provided significant levels of cortical neuroprotection
blood pressure or cerebral blood flow ([8]; rat, in vivo): had no effect on blood pressure or cerebral blood flow
behavioural effects of tinnitus ([4]; 10 mg/kg): abolished
opening of maxi-K channels (maxi-K channels): potent, effective and uniquely Ca^2+-sensitive opener
FXS-associated phenotypes (Fmr1 knockout mouse): could inhibit the FXS-associated phenotypes
